Several values for one entry are separate records, joined by “and”; a condition that tells them apart may be missing. Identical values can stand only once. Inconclusive results and toxic doses are left out. Cut-off read from the data, not from the text of the source: active = T/C of 150% or more; inactive = T/C below 125%.
Tested on: L1210 leukemia ip in BDF1 mice, survival T/C
Test: NCI In Vivo Anticancer Drug Screen. Data for tumor model L1210 Leukemia (intraperitoneal) in B6D2F1 (BDF1) mice
Conditions: endpoint: mean survival time, higher = longer survival
In short: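 Transplanted-tumor mice were given test agent; controls received vehicle only. Survival readings from the two groups were divided (treated over control).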

[1] = dose: 100.0 mg/kg/injection, schedule: Q04DX002 (ip), vehicle: Klucel (hydroxypropylcellulose) (HPC)
[2] = dose: 200.0 mg/kg/injection, schedule: Q04DX002 (ip), vehicle: Klucel (hydroxypropylcellulose) (HPC)
[3] = dose: 400.0 mg/kg/injection, schedule: Q04DX002 (ip), vehicle: Klucel (hydroxypropylcellulose) (HPC)
[4] = dose: 75.0 mg/kg/injection, schedule: Q01DX001 (ip), vehicle: saline
[5] = dose: 150.0 mg/kg/injection, schedule: Q01DX001 (ip), vehicle: saline
[6] = dose: 50.0 mg/kg/injection, schedule: Q04DX003 (ip), vehicle: Klucel (hydroxypropylcellulose) (HPC)
[7] = dose: 100.0 mg/kg/injection, schedule: Q04DX003 (ip), vehicle: Klucel (hydroxypropylcellulose) (HPC)
[8] = dose: 50.0 mg/kg/injection, schedule: Q01DX001 (ip), vehicle: saline
[9] = dose: 100.0 mg/kg/injection, schedule: Q01DX001 (ip), vehicle: saline
[10] = dose: 200.0 mg/kg/injection, schedule: Q01DX001 (ip), vehicle: saline
[11] = dose: 400.0 mg/kg/injection, schedule: Q01DX001 (ip), vehicle: saline
[12] = dose: 200.0 mg/kg/injection, schedule: Q04DX003 (ip), vehicle: Klucel (hydroxypropylcellulose) (HPC)
[13] = dose: 400.0 mg/kg/injection, schedule: Q04DX003 (ip), vehicle: Klucel (hydroxypropylcellulose) (HPC)
[14] = dose: 100.0 mg/kg/injection, schedule: Q01DX009 (ip), vehicle: saline
[15] = dose: 200.0 mg/kg/injection, schedule: Q01DX009 (ip), vehicle: saline
[16] = dose: 400.0 mg/kg/injection, schedule: Q01DX009 (ip), vehicle: saline

Measured: T/C

CN(C)N=Nc1ccc(C(=O)OC2CCC3C4CCC5=CC(=O)CCC5(C)C4CCC23C)cc1 (stereo not given)
inactive: dose: 10.0 mg/kg/injection, schedule: Q01DX009 (ip), vehicle: Klucel (hydroxypropylcellulose) (HPC) 96 % of control | [1] 94 % of control | dose: 200.0 mg/kg/injection, schedule: Q01DX009 (ip), vehicle: Klucel (hydroxypropylcellulose) (HPC) 102 % of control | [2] 102 % of control | dose: 400.0 mg/kg/injection, schedule: Q01DX009 (ip), vehicle: Klucel (hydroxypropylcellulose) (HPC) 97 % of control | [3] 91 % of control

CC(C)=NC(=O)NO.[Cl][Mn][Cl]
inactive: dose: 37.5 mg/kg/injection, schedule: Q01DX009 (ip), vehicle: saline 105 % of control | [4] 91 % of control | dose: 75.0 mg/kg/injection, schedule: Q01DX009 (ip), vehicle: saline 111 % of control | [5] 104 % of control | dose: 150.0 mg/kg/injection, schedule: Q01DX009 (ip), vehicle: saline 105 % of control

CC(=O)NC(N)=S
inactive: dose: 25.0 mg/kg/injection, schedule: Q04DX002 (ip), vehicle: Klucel (hydroxypropylcellulose) (HPC) 108 % of control | dose: 50.0 mg/kg/injection, schedule: Q04DX002 (ip), vehicle: Klucel (hydroxypropylcellulose) (HPC) 108 % of control | [6] 97 % of control | [1] 108 % of control | [7] 103 % of control

Cc1ccc(C2NC(=O)N3C(c4ccc(C)cc4)NC(=O)N23)cc1 (stereo not given)
inactive: dose: 100.0 mg/kg/injection, schedule: Q01DX009 (ip), vehicle: gum acacia 99 % of control | dose: 100.0 mg/kg/injection, schedule: Q04DX003 (ip), vehicle: gum acacia 99 % of control | dose: 200.0 mg/kg/injection, schedule: Q01DX009 (ip), vehicle: gum acacia 102 % of control | dose: 200.0 mg/kg/injection, schedule: Q04DX003 (ip), vehicle: gum acacia 87 % of control | dose: 400.0 mg/kg/injection, schedule: Q01DX009 (ip), vehicle: gum acacia 96 % of control | dose: 400.0 mg/kg/injection, schedule: Q04DX003 (ip), vehicle: gum acacia 92 % of control

O=C1CCCC(=O)NNC(=O)Nc2ccccc2NC(=O)NN1
inactive: [8] 102 % of control | [9] 90 % of control | [10] 96 % of control | [11] 96 % of control

O=C(O)c1cc2ccc(O)cc2oc1=O
inactive: dose: 100.0 mg/kg/injection, schedule: Q01DX001 (ip), vehicle: carboxymethylcellulose (CMC) 94 % of control | dose: 200.0 mg/kg/injection, schedule: Q01DX001 (ip), vehicle: carboxymethylcellulose (CMC) 94 % of control | dose: 400.0 mg/kg/injection, schedule: Q01DX001 (ip), vehicle: carboxymethylcellulose (CMC) 97 % of control

COC(=O)C1=COC(C)C2CN3CCc4c([nH]c5ccccc45)C3CC12 (stereo not given)
inactive: dose: 25.0 mg/kg/injection, schedule: Q04DX003 (ip), vehicle: Klucel (hydroxypropylcellulose) (HPC) 96 % of control | [6] 98 % of control | [1] 98 % of control and 95 % of control | [7] 98 % of control | [2] 91 % of control and 102 % of control | [12] 95 % of control | [3] 87 % of control and 106 % of control | [13] 100 % of control

O=C1C2CC=C(c3ccccc3)C1CCC2 (stereo not given)
inactive: dose: 75.0 mg/kg/injection, schedule: Q01DX001 (ip), vehicle: other 103 % of control | dose: 150.0 mg/kg/injection, schedule: Q01DX001 (ip), vehicle: other 97 % of control | dose: 300.0 mg/kg/injection, schedule: Q01DX001 (ip), vehicle: other 102 % of control

Cc1cc(-c2ccc(N3C(=O)C=CC3=O)c(C)c2)ccc1N1C(=O)C=CC1=O
inactive: [7] 105 % of control | [12] 100 % of control

CC(C)Oc1ccc(C(=O)NS(=O)(=O)c2ccc(N)cc2)cc1
inactive: [9] 101 % of control | [14] 91 % of control | [10] 101 % of control | [15] 103 % of control | [11] 100 % of control | [16] 100 % of control

c1scc2c1COCc1cscc1-2
inactive: dose: 100.0 mg/kg/injection, schedule: Q01DX001 (ip), vehicle: saline with Tween-80 94 % of control | dose: 200.0 mg/kg/injection, schedule: Q01DX001 (ip), vehicle: saline with Tween-80 94 % of control | dose: 400.0 mg/kg/injection, schedule: Q01DX001 (ip), vehicle: saline with Tween-80 88 % of control

CC(=O)Nc1cccc(C(=O)O)c1O
inactive: [9] 100 % of control | [10] 105 % of control | [11] 100 % of control

CCC1(N)COC(c2ccccc2)OC1 (stereo not given)
inactive: dose: 50.0 mg/kg/injection, schedule: Q01DX009 (ip), vehicle: Klucel (hydroxypropylcellulose) (HPC) 109 % of control | dose: 100.0 mg/kg/injection, schedule: Q01DX009 (ip), vehicle: Klucel (hydroxypropylcellulose) (HPC) 88 % of control

CN(C)/N=C/c1ccccc1O
inactive: [14] 96 % of control | [15] 104 % of control | [16] 96 % of control

CC(=O)N(C)C1=C(Sc2ccc([N+](=O)[O-])cc2)C(=O)c2ccccc2C1=O
inactive: dose: 50.0 mg/kg/injection, schedule: Q04DX003 (ip), vehicle: other 92 % of control | dose: 100.0 mg/kg/injection, schedule: Q01DX001 (ip), vehicle: other 97 % of control | dose: 100.0 mg/kg/injection, schedule: Q04DX003 (ip), vehicle: other 97 % of control | dose: 200.0 mg/kg/injection, schedule: Q01DX001 (ip), vehicle: other 96 % of control | dose: 200.0 mg/kg/injection, schedule: Q04DX003 (ip), vehicle: other 86 % of control | dose: 400.0 mg/kg/injection, schedule: Q01DX001 (ip), vehicle: other 92 % of control

COC(=O)C1(C)CCCC2(C)C1CCC13CCC(C)(CCC21)C3O (stereo not given)
inactive: [1] 103 % of control | [2] 92 % of control | [3] 92 % of control

OCCN(CCO)CCN1c2ccccc2Sc2ccccc21
inactive: dose: 5.0 mg/kg/injection, schedule: Q01DX001 (ip), vehicle: saline 95 % of control | dose: 10.0 mg/kg/injection, schedule: Q01DX001 (ip), vehicle: saline 97 % of control | dose: 20.0 mg/kg/injection, schedule: Q01DX001 (ip), vehicle: saline 92 % of control | dose: 40.0 mg/kg/injection, schedule: Q01DX001 (ip), vehicle: saline 95 % of control | dose: 80.0 mg/kg/injection, schedule: Q01DX001 (ip), vehicle: saline 95 % of control | [9] 96 % of control | [10] 112 % of control

Cc1cc2c(C)c3cc(C)c(C)c(C)c3cc2c(C)c1C
inactive: dose: 25.0 mg/kg/injection, schedule: Q01DX005 (ip), vehicle: water 114 % of control | dose: 50.0 mg/kg/injection, schedule: Q01DX005 (ip), vehicle: water 94 % of control | dose: 100.0 mg/kg/injection, schedule: Q01DX005 (ip), vehicle: water 94 % of control and 97 % of control | dose: 200.0 mg/kg/injection, schedule: Q01DX005 (ip), vehicle: water 96 % of control | dose: 400.0 mg/kg/injection, schedule: Q01DX005 (ip), vehicle: water 100 % of control

CCCCC(CC)CC1C(=O)NC(=S)NC1=O (stereo not given)
inactive: [4] 97 % of control | [5] 98 % of control

O=C(Oc1c(Cl)c(Cl)c(Cl)c(Cl)c1Cl)c1cc(Cl)cc(Cl)c1Br
inactive: dose: 25.0 mg/kg/injection, schedule: Q04DX003 (ip), vehicle: saline with Tween-80 105 % of control | dose: 50.0 mg/kg/injection, schedule: Q04DX003 (ip), vehicle: saline with Tween-80 102 % of control | dose: 100.0 mg/kg/injection, schedule: Q04DX003 (ip), vehicle: saline with Tween-80 97 % of control and 91 % of control

O=C(/C=C\c1ccccc1)OCCCCOC(=O)/C=C/c1ccccc1
inactive: [8] 103 % of control | [9] 101 % of control | [10] 91 % of control | [11] 97 % of control

Cc1nc(N)[nH]c(=O)c1N
inactive: dose: 75.0 mg/kg/injection, schedule: Q01DX001 (ip), vehicle: saline with Tween-80 106 % of control | [7] 100 % of control | dose: 150.0 mg/kg/injection, schedule: Q01DX001 (ip), vehicle: saline with Tween-80 101 % of control | [12] 96 % of control | dose: 300.0 mg/kg/injection, schedule: Q01DX001 (ip), vehicle: saline with Tween-80 103 % of control | [13] 92 % of control

— PubChem BioAssay AID248 (DTP/NCI, 2004)
